Assay results taken from ChEMBL document CHEMBL1201862, “PubChem BioAssay data set” (2004).
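Tested at 5 concentrations; 48 h exposure; 96-well plates; endpoints linearly interpolated, else capped at highest concentration. GI50 = concentration required for 50% inhibition of growth.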 Activity calls are given as the source filed them. Cut-off read from the data, not from the text of the source: active = GI50 up to about 1.1 µM and inactive = higher. Non-standard residues stand in square brackets, D forms with d. Residues, ends and D or L forms follow the SMILES beside them. *: point of attachment. Ac5c = NC1(C(=O)O)CCCC1; Boc = CC(C)(C)OC(=O)*; tBu = CC(C)(C)*

How the values were obtained:
Test in all cases: NCI anticancer screen, dose series, 48 h
K562 = system: K562
786-0 = system: 786-0
SW-620 = system: SW-620
HCC 2998 = system: HCC 2998
NCI/ADR-RES = system: NCI/ADR-RES
HCT-116 = system: HCT-116
A549 = system: A549
HOP-92 = system: HOP-92
EKVX = system: EKVX
UO-31 = system: UO-31
NCI-H23 = system: NCI-H23
DU-145 = system: DU-145
MDA-N = system: MDA-N
OVCAR-8 = system: OVCAR-8
LOX IMVI = system: LOX IMVI
NCI-H460 = system: NCI-H460
OVCAR-5 = system: OVCAR-5
MDA-MB-435 = system: MDA-MB-435
HT-29 = system: HT-29
SF-268 = system: SF-268

Measured: GI50

COC(=O)C1(C(=O)OC)N=C(C)OC1c1ccccn1 (stereo not drawn)
inactive: K562 > 100 µM | 786-0 > 100 µM | SW-620 > 100 µM | HCC 2998 > 100 µM | NCI/ADR-RES > 100 µM | HCT-116 > 100 µM | A549 > 100 µM | HOP-92 > 100 µM | EKVX > 100 µM | UO-31 > 100 µM | NCI-H23 > 100 µM | DU-145 > 100 µM | MDA-N > 100 µM | OVCAR-8 > 100 µM | LOX IMVI > 100 µM | NCI-H460 > 100 µM | OVCAR-5 > 100 µM | MDA-MB-435 > 100 µM

COc1cc(CNC(=O)CCCCCCCCCCSC#N)ccc1O
inactive: K562 6.9 µM | 786-0 17.8 µM | SW-620 16.2 µM | HCC 2998 > 100 µM | NCI/ADR-RES 17.1 µM | HCT-116 14.9 µM | A549 19.1 µM | HOP-92 17.1 µM | EKVX 21.4 µM | UO-31 3.52 µM | NCI-H23 20.6 µM | DU-145 17.8 µM | MDA-N 5.87 µM | OVCAR-8 18.5 µM | LOX IMVI 12 µM | HT-29 31.9 µM | NCI-H460 13.3 µM | OVCAR-5 30.3 µM | MDA-MB-435 5.52 µM

C/C=C1/CC(C)C(C)(O)C(=O)OCC2C(O)CN3CCC(OC1=O)C23 (stereo not drawn)
inactive: K562 > 100 µM | 786-0 > 100 µM | SW-620 > 100 µM | HCC 2998 > 100 µM | NCI/ADR-RES > 100 µM | HCT-116 > 100 µM | A549 > 100 µM | HOP-92 > 100 µM | EKVX > 100 µM | SF-268 > 100 µM | NCI-H23 > 100 µM | DU-145 > 100 µM | MDA-N > 100 µM | OVCAR-8 > 100 µM | LOX IMVI > 100 µM | HT-29 > 100 µM | NCI-H460 > 100 µM | OVCAR-5 > 100 µM | MDA-MB-435 > 100 µM

CC(C)[Si](OC1=CCCCCC12C(=O)N(C)c1ccccc12)(C(C)C)C(C)C (stereo not drawn)
inactive: K562 24.1 µM | 786-0 17.7 µM | SW-620 17.3 µM | HCC 2998 21.7 µM | NCI/ADR-RES 18.8 µM | A549 19.8 µM | HOP-92 16.5 µM | EKVX 17.7 µM | SF-268 18.4 µM | UO-31 21.3 µM | NCI-H23 19.5 µM | DU-145 15 µM | MDA-N 28.4 µM | OVCAR-8 21 µM | LOX IMVI 19.5 µM | HT-29 20.5 µM | NCI-H460 17.6 µM | OVCAR-5 16.9 µM | MDA-MB-435 25.1 µM

Cc1ccc(/C=C2\N=C(N3CCCC(CO)C3)NC2=O)cc1 (stereo not drawn)
inactive: K562 > 100 µM | 786-0 > 100 µM | SW-620 > 100 µM | HCC 2998 > 100 µM | NCI/ADR-RES > 100 µM | HCT-116 > 100 µM | A549 > 100 µM | HOP-92 > 100 µM | EKVX > 100 µM | SF-268 > 100 µM | UO-31 > 100 µM | NCI-H23 > 100 µM | DU-145 > 100 µM | MDA-N > 100 µM | OVCAR-8 > 100 µM | LOX IMVI > 100 µM | HT-29 > 100 µM | OVCAR-5 > 100 µM | MDA-MB-435 > 100 µM

CC(=O)NC1C(OCc2ccccc2)OC(CO)C(O)C1OCC(=O)N[C@@H](C)C(=O)N[C@H](CCC(=O)NCCNCCNc1c2ccccc2nc2cccc([N+](=O)[O-])c12)C(N)=O (stereo partly drawn)
inactive: K562 32.3 µM | 786-0 25.4 µM | SW-620 39.1 µM | HCC 2998 6.52 µM | NCI/ADR-RES > 100 µM | HCT-116 19.5 µM | A549 35.4 µM | HOP-92 20.7 µM | EKVX 31.6 µM | UO-31 44.8 µM | NCI-H23 16.4 µM | DU-145 36.6 µM | MDA-N 33.1 µM | OVCAR-8 27.4 µM | LOX IMVI 23.5 µM | HT-29 23.6 µM | NCI-H460 15.1 µM | OVCAR-5 53.3 µM | MDA-MB-435 29.6 µM

CC(C)[Si](OC1=C(C(=O)N(C)c2ccccc2Cl)CCCC1)(C(C)C)C(C)C
inactive: K562 6.15 µM | 786-0 17.1 µM | SW-620 15.2 µM | HCC 2998 13.6 µM | NCI/ADR-RES 14.9 µM | A549 1.57 µM | HOP-92 13.3 µM | EKVX 13.6 µM | SF-268 13.9 µM | UO-31 14.5 µM | NCI-H23 16.3 µM | DU-145 10.6 µM | MDA-N 16.4 µM | OVCAR-8 16.2 µM | LOX IMVI 15.7 µM | HT-29 15.8 µM | NCI-H460 12.9 µM | OVCAR-5 12.8 µM | MDA-MB-435 16.4 µM

CC(OC(C)(C)C)C1NC(=O)C(CCCCNC(=O)OC(C)(C)C)NC(=O)C(Cc2c[nH]c3ccccc23)NC(=O)C(Cc2ccccc2)NC(=O)C2(CCCC2)NC(=O)C(Cc2ccccc2)NC1=O (stereo not drawn) (cyclo([Ac5c]FWK(Boc)T(tBu)F); configuration not given here)
inactive: K562 27.8 µM | 786-0 16 µM | SW-620 22.9 µM | HCC 2998 19 µM | NCI/ADR-RES > 100 µM | HCT-116 33.3 µM | HOP-92 23.5 µM | EKVX 41.5 µM | SF-268 16.6 µM | NCI-H23 36.9 µM | DU-145 50.9 µM | MDA-N 43.2 µM | OVCAR-8 50.2 µM | LOX IMVI 19.2 µM | HT-29 24 µM | NCI-H460 36.7 µM | OVCAR-5 72.6 µM | MDA-MB-435 14.7 µM

C=C1[C@@H]([C@@]2(C)C=CC(=O)C(C)(C)[C@@H]2CC(=O)OC)CC[C@@]2(C)[C@H](c3ccoc3)OC(=O)[C@H]3O[C@]132 [ANDIROBIN]
inactive: 786-0 > 100 µM | SW-620 > 100 µM | HCC 2998 > 100 µM | NCI/ADR-RES > 100 µM | HCT-116 > 100 µM | A549 > 100 µM | HOP-92 > 100 µM | EKVX > 100 µM | SF-268 > 100 µM | UO-31 73.8 µM | NCI-H23 > 100 µM | DU-145 > 100 µM | MDA-N > 100 µM | OVCAR-8 > 100 µM | LOX IMVI > 100 µM | HT-29 > 100 µM | NCI-H460 > 100 µM | OVCAR-5 > 100 µM | MDA-MB-435 > 100 µM

Cc1cc(O)c2c(c1O)C(=O)c1c(O)ccc(O)c1C2=O [Cynodontin]
inactive: K562 > 100 µM | 786-0 82 µM | SW-620 > 100 µM | HCC 2998 > 100 µM | NCI/ADR-RES > 100 µM | HCT-116 > 100 µM | A549 > 100 µM | HOP-92 > 100 µM | EKVX > 100 µM | SF-268 > 100 µM | NCI-H23 > 100 µM | DU-145 > 100 µM | MDA-N > 100 µM | OVCAR-8 > 100 µM | LOX IMVI > 100 µM | HT-29 > 100 µM | NCI-H460 > 100 µM | OVCAR-5 > 100 µM | MDA-MB-435 > 100 µM
